Earlier results on 1 compound are cited in US20200236944A1, “DIURON-CONTAINING FRUIT THINNING AGENT” (ADAMA AGAN LTD., priority 2017, published 2020).

The test system of series [1] is orange trees. Particulars: 2500 ppm diuron.
In series [2] the test system is peach leaves. Particulars: 100 ppm diuron.

Consider `CN(C)C(=O)Nc1ccc(Cl)c(Cl)c1` [diuron, 3-(3,4-dichlorophenyl)-1,1-dimethylurea], for which the “Fruiting of orange trees” value in series [1] is listed as “partially prevent the fruiting”. Moreover, the “Photosynthesis rate for peaches” value in series [2] is “long-lasting and thus undesirably low”.
